Experimental findings from EP3011965B1, “SALVIA MILTIORRHIZA EXTRACT, MICROPELLET FORMULATION THEREOF, METHODS OF PREPARING SAME, AND USES THEREOF” (Tasly Pharmaceutical Group Co., Ltd., priority 2013, dated 2014) are described below.

Marks after values point to notes of the source that are not given here.

The test deals with zebra fish high blood lipid model. Nature of the test: Quantitative evaluation of blood lipid lowering effect in zebra fish high blood lipid model. Conditions: 48 hours after treatment; for Blood lipid reducing rate: 0.081 µg/ml (text: 0.08 µg/ml), vs model group. Format: in vivo, zebra fish of ALBINO strain. The protocol: Animal: Zebra fish embryos were propagated by means of natural pair mating. Each mating, 4∼5 pairs of adult were prepared, and in average, each pair of zebra fish produced 200∼300 embryos. At 6th hour post-fertilization (6hpf) and 24hpf, the embryos were cleaned (removing dead embryo) and qualified embryos were selected according to embryo developing stage (Kimmel et al. 1995). At 28°C, embryos were incubated in fish-farming water, which contained 200mg instant soluble sea salt in 1L reverse osmosis water with conductivity of 480-510 µS/cm, pH of 6.9-7.2, hardness of 53.7-71.6 mg/L CaCO3. Feeding was required since 9 days post-fertilization (9dPf) because the embryos could get nutrients from their own yolk sac. After study, tricaine methane sulfonate (TMS) was used to overexpose the embryos in various developmental stages and the zebra fish were anesthetized and sacrificed. Sacrifice procedure was in light of the sacrifice-under-anesthesia regulatory requirement of AVMA (America Veterinary medical Association).
According to results of part A, the blood lipid lowering effect of Danshen extract in three concentrations was evaluated (usually at MNLC, 1/3MNLC and 1/10 MNLC), and 30 zebra fish treated in each concentration.
High-fat food was used to feed juvenile fish of zebra fish of ALBINO strain to induce zebra fish high blood lipid model.
After feeding, the zebra fish high blood lipid model was treated with tested drug for 48 hours.
Positive drug: lovastatin at 0.08 µg/ml.
After being treated with tested drugs, zebra fish were fat stained with fat-specific colorant.
Fifteen zebra fish were randomly selected in each concentration to observe intensity of zebra fish tail blood fat stain, pictured and saved.
Image -Pro Plus 6.0 image analytical software was used to analyze the image. The signal strength of zebra fish tail blood fat stain (S) was calculated and quantitatively analyzed. The statistical results were expressed as X ± SE. […]

For the compound `CC[C@H](C)C(=O)O[C@H]1C[C@@H](C)C=C2C=C[C@H](C)[C@H](CC[C@@H]3C[C@@H](O)CC(=O)O3)[C@H]21` [Lovastatin, lovastatin], the “Blood lipid reducing rate” value is 26.3* %. In addition, where the note is “listed as lovastatin”, the “Blood lipid reducing rate” value amounted to 26.3%. Moreover, the “Tail blood lipid IOD” value (0.081 µg/ml, Mean±SE) amounted to 2142±109.
